How the values were obtained:
[1] = system: AC133 positive neural progenitors; assay: clonal generation of neurospheres from dissociated mouse postnatal forebrain; assay type: cell-based
[2] = system: AC133 and nestin expression in brain cortex; assay: neural stem cell markers in brain after traumatic brain injury in mice treated with 2-AG (blots); assay type: in vivo
[3] = system: clonal neurospheres from postnatal rat forebrain; assay type: cell-based; settings: at 1 μM
[4] = i.p. 5 mg/kg daily, 3 hr, 24 hr and 5 days post injury
[5] = treatment post injury 5 mg/kg i.p. daily

## lysophosphatidic acid [LPA]
[1]
  clonal generation of neurospheres: instigated clonal generation of mouse neurospheres

## CCCCC/C=C\C/C=C\C/C=C\C/C=C\CCCC(=O)OC(CO)CO [2-AG, 2-arachidonoyl glycerol]
[2]; [4]
  AC133 in brain cortex after TBI (FIG. 6A): up-regulation
  Nestin in brain cortex after TBI (FIG. 6B): up-regulation
[2]; [5]
  expression of AC133 neural stem cells after traumatic brain injury (FIG. 10A): increase of enhanced expression
  expression of nestin in neural stem cells after traumatic brain injury (FIG. 10B): increase of enhanced expression
[3]
  clonal neurospheres from postnatal rat forebrain (FIG. 8A): abolition
[1]
  clonal generation of neurospheres: instigated clonal generation of neurospheres

From patent publication US7611858B1, “Detection of cannabinoid receptor biomarkers and uses thereof” (University of Florida Research Foundation, Inc., priority 2004, dated 2009)
